Results from patent US7476729B2, “Dbait and uses thereof” (Institut Curie, priority 2003, dated 2009).

What was measured:
[1] = system: Hela cells; test: Clonogenic survival assay of Hela cells after 4×0.5 Gy irradiation; type: cell-based, human; conditions: 4×0.5 Gy spaced 2 hours, Dbait transfected with Superfect (83 nM or 2 μg)
Method: (§1) Exponentially growing cells in six-well plates were harvested and incubated with […] of complete DMEM containing a mixture of Dbait molecules and Superfect reagent (Qiagen, Courtaboeuf, France) in a ratio of 10 μl Superfect per μg DNA. After 5 h at 37° C. under standard conditions, the cells were washed with PBS and complete DMEM was added. Where indicated, cells were exposed to irradiation either in one session (10 Gy) 5 h after the beginning of transfection or in four sessions of 0.5 Gy administered with a ^137Cs unit (1 Gy/min) 3, 4, 5 and 6 h after the beginning of transfection and allowed to grow for two weeks. When plasmid integration was measured, 2 μg of plasmid was added to Dbait transfection and puromycin (1.7 μg/ml) was added to the growth medium 48 h after transfection. Plasmid transfection efficiency was estimated by analyzing 10,000 cells for GFP expression on a FACScan flow cytometer (FACSalibur, Beckton-Dickinson, USA).
Upon 8 hours transfection of Dbait molecules in Hela cells and four irradiation with 0.5 Gy fractionated irradiation spaced 2 hours (4×0.5 Gy), performed with γ-rays from a ^137Cs source, a significant reduction of clonogenic survival was observed as compared to untransfected cells. The results are given on FIG. 2.1 wherein Panel A gives the dose-dependence of normalized survival clone number in the presence of Dbait32 (SEQ ID NO: 1) and Dbait32H (SEQ ID NO: 1), and Panel B, the normalized survival clone number in the presence of different Dbait molecules at 83 nM (concentration in culture medium). Cell culture was in MEM supplemented with 10% serum. Superfect (Qiagene) was used as transfection agent according to the manufacturer's instruction.
Clonogenic survival was estimated as the number of treated cells forming colonies on the number of untreated cells.

[2] = biological target: T1, DNA-PK (Homo sapiens, UniProt P12956+P13010+P78527); test: DNA-dependent protein kinase (DNA-PK) activity assay in Hep2 nuclear extract; type: biochemical; conditions: 2 μg Dbait, 1.5 μg Hep2 nuclear protein extract
T1 construct: Increasing amounts of Hep2 nuclear extract (cleaned of endogenous DNA by DEAE-Sepharose filtration) were assayed; endogenous in cells; host or cells: Hep2 cells (nuclear extract, DNA removed by DEAE-Sepharose filtration)
Method: (§2) DNA-PK activity was monitored using the kit SignaTECT DNA-dependent Protein Kinase Assay System (Promega, Madison, USA). Increasing amounts of Hep2 nuclear extract (cleaned of endogenous DNA by DEAE-Sepharose filtration) were assayed in the presence of 250 nM Dbait. Extract, biotinylated peptide substrate and various amount of nuclear extract were incubated 5 minutes at 30° C. with (γ-^32P)ATP according to manufacturer indications. The biotinylated substrate was capture on streptavidine membrane, washed and counted in a scintillation counter. Percentage of phosphorylation is calculated by dividing the bound radioactivity by the total count of (γ-^32P)ATP per sample. Reactions (10 μl) were carried out in 60 mM KOAc, 100 μg/ml BSA, 0.5 mM Mg(Cl)2, 1 μl T4 DNA ligase 10× buffer (Promega, Madison, USA). Nuclear extract and Dbait were incubated 2 minutes before addition of ^32P-labeled DNA (10 ng). Samples were incubated various time at 37° C. before ligation being stopped by 20 mM EDTA and 1 mg/ml Proteinase K addition. Ligation products were analyzed by electrophoresis through 0.7% agarose gels followed by autoradiography and quantification by phosphorimaging.
The kinase activity depended directly on the length and structure of the double-stranded ‘stem’ of the Dbait molecule. […] In addition, various backbone modifications (phosphothioate, methyphosphonate, 3′-3′ linkage) at the free blunt end (up to 3-bp), as well as the internally tagged ligands (e.g. fluorescent dyes), are capable of activating DNA-PK activity.

[3] = biological target: T2, Ku complex (Homo sapiens, UniProt P12956+P13010); test: Band-shift assay with Hep2 nuclear protein extracts; type: binding; conditions: for retarded bands in band-shift assay: 10 nM 32P radio-labelled Dbait, 0-320 ng/μL Hep2 nuclear proteins, 30° C., 10 minutes
T2 construct: in the presence of nuclear protein extracts from Hep2 cells according to standard protocol; endogenous in cells; host or cells: Hep2 cells (nuclear protein extract)
T2 sequence (P12956 whole entry): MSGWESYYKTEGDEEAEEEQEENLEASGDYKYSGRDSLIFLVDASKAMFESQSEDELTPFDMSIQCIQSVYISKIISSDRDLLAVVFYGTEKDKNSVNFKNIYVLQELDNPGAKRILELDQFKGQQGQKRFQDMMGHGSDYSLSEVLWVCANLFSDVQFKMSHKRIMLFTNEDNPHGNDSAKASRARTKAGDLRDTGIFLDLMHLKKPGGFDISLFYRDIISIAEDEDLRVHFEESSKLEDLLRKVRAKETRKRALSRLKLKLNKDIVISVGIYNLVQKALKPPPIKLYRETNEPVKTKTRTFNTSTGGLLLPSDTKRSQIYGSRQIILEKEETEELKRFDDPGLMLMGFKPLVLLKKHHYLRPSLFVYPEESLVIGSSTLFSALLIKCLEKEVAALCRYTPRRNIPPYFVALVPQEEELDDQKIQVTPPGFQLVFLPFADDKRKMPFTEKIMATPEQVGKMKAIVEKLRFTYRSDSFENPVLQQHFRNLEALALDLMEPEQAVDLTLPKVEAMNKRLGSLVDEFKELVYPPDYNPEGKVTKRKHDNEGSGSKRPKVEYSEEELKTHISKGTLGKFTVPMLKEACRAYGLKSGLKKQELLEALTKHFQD
T2 sequence (P13010 whole entry): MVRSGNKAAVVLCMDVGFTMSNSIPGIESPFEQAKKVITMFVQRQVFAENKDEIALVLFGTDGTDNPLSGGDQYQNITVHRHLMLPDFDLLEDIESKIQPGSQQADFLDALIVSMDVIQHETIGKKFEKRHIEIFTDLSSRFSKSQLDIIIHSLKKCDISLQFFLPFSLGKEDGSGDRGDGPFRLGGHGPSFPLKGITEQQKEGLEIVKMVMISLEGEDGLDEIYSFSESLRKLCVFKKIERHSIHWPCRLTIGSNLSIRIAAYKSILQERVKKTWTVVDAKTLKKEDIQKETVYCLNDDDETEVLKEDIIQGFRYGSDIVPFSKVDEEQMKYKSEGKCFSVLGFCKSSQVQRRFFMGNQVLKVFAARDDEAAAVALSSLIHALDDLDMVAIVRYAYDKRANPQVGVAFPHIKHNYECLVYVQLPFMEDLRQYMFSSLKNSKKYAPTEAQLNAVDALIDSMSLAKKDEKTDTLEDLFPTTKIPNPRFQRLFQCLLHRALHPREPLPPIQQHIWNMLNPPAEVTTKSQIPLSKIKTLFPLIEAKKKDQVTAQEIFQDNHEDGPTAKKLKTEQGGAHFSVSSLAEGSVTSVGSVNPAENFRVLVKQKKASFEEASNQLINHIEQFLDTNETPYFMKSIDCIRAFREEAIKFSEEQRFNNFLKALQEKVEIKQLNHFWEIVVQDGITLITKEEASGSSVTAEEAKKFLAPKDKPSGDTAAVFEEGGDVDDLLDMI
Method: As the first step to dissect the mechanism of action of Dbait molecules, a series of band-shift assays were carried out with different ^32P radio-labelled Dbait molecules in the presence of nuclear protein extracts from Hep2 cells according to standard protocol. Typically, 10 nM ^32P radio-labelled Dbait molecules were incubated in the presence of various concentrations of nuclear proteins (0, 10, 20, 40, 80, 160, and 320 ng/μL) at 30° C. for 10 minutes in TBE buffer. Then the samples were loaded on a 5% acrylamide native gel. The electrophoresis was run at 95V for 2 hours at 4° C. The gel was dried and scanned by phosphorimager (Molecular Dynamics).
For 32-bp Dbait molecules, the intensity of the retarded band 1 increases and then decreases as the concentration of protein increases, while the intensity of the retarded band 2 increases as a function of the concentration of nuclear protein extracts.
It is likely that band 1 has one Ku70/80 complex bound to the 16 to 32-bp Dbait, whereas the band 2 has two Ku70/80 complexes bound to the 32-bp Dbait molecules. Control experiments performed with purified Ku proteins confirmed this interpretation.

[4] = system: DNA end-joining reaction in the nuclear extracts of Hep2 cells; test: DNA end-joining assay in Hep2 nuclear extract; type: biochemical, human; conditions: 2 h incubation with various Dbait
Method: DNA end-joining was monitored by incubating ^32P-labeled 605-bp linear DNA fragments with Hep2 nuclear extract in the presence of various Dbait molecules. Ligation products migrate as dimers, trimers or tetramers, starting 605 bp monomer.
Approximately 16% of the ^32P-labeled blunt linear duplex DNA molecules were ligated into dimers and trimers during the first 2 h of incubation. The amount of high molecular weight ligation products increased up to 30% of the total input DNA after 16 h. […] In most experiments, Dbait32H (SEQ ID NO: 1) was added simultaneously with the labeled DNA fragments to the nuclear extract.
Various Dbait molecules were tested for their effect on the cell-free assay by adding the molecules to nuclear extract and incubating for 2 h with the DNA fragments.
as §2

[5] = system: radiation-enhanced illegitimate integration of a plasmid in Hela cells; test: Inhibition of radiation-enhanced illegitimate integration of exogenous DNA; type: cell-based, human; conditions: 2 μg Dbait, fractionated 4×0.5 Gy irradiation
Method: as §1
Ionizing radiation is known to improve illegitimate integration of exogenous DNA, a process termed radiation-enhanced integration. Hela cell culture was used for this assay. Cells were transfected during 8 hours by 2 μg of a linear plasmid carrying the gene coding for neomycin resistance, and three different ratio of DNA/superfect (1:2, 1:5, 1:10). During transfection time, the cells were exposed to different irradiation protocols: no irradiation, one single irradiation of 1 Gy and 2 Gy, as well as a 2 Gy irradiation delivered by fractionated doses of 0.5 Gy every 2 hours (4×0.5 Gy). The integration of the plasmid was monitored by selection of Neo^R cells growing in a medium containing 0.6 mg/ml of G418. […] When 2 μg of Dbait32H (SEQ ID NO: 1) molecules were added to the transfection mix, the radiation-enhanced integration was abolished (FIG. 2.3).
Wortmann (Wort) and NU7026 (NU) which are known inhibitors of PI3K (including DNA-PK) were used as control.

For “5′ACGCACGGGTGTTGGGTCGTTTGTTCGGATCT ACGCACGGTCGTTTGTTCGGTGTTGGCGATCT3′ [Dbait64L]”, the clonogenic survival [1] was “significantly reduced clonogenic survival”.

With “5′ACGCACGGGTGTTGGGTCGTTTGTTCGGATCTACGCACGGTCGTTTGTTCGGTGTTGGCGATCT3′ [Dbait64]” the clonogenic survival [1] was “significantly reduced clonogenic survival”.

For “Dbait24H: hairpin double strand DNA with a stem of 24-bp (DNA ACGCACGGGTGTTGGGTCGTTTGT; DNA, backbone not given here; hairpin DNA with hexaethyleneglycol loop, 3-bp phosphorothioate at free blunt end)”, the “DNA-PK activation (kinase activity)” value [2] was “inefficient”, the “retarded bands in band-shift assay” value [3] was “One retarded band” and the “binding of Ku” value ([3]; Hep2 nuclear extract, band-shift) was “bound only one Ku dimer”. The clonogenic survival [1] was “significantly reduced clonogenic survival” and the “ligation of DNA fragments in cell-free assay” value [4] was “inhibited the ligation as efficiently as Dbait32H”.

In the case of “Dbait32-T4: contains four thymines (T4) as a linker instead of a hexaethyleneglycol linker (DNA ACGCACGGGTGTTGGGTCGTTTGTTCGGATCT; DNA, backbone not given here; hairpin DNA with four-thymine loop, 3-bp phosphorothioate at free blunt end)”, the clonogenic survival [1] is reported as “significantly reduced clonogenic survival”.

With “Dbait32C: dumbbell 32-bp double strand DNA (without free blunt end) (DNA ACGCACGGGTGTTGGGTCGTTTGTTCGGATCT; DNA, backbone not given here; dumbbell duplex DNA, both ends closed by hexaethyleneglycol loops)” the “radiation-enhanced illegitimate integration of plasmid (puromycin resistance)” value [5] was “not effective” and the “ligation of DNA fragments in cell-free assay” value [4] was “largely unaffected”.

For “Dbait32H-po: full length phosphodiester Dbait32H (DNA ACGCACGGGTGTTGGGTCGTTTGTTCGGATCT; DNA, phosphodiester; hairpin DNA closed by hexaethyleneglycol loop)”, the “retarded bands in band-shift assay” value [3] was “two retarded band”.
